Assay [1] has as its system A549 lung adenocarcinoma cells. The experiment in a line: Sensitization of cells to platinum/alkylating agent with TGFBR1 and ACVR1B inhibitor. The format is cell-based, human. The method, then:
10,000 cells per well were plated in to a 96 well plate. […] Plates are left to incubate for 3 days with an Alamar Blue reading performed at end point.
(§1) 5000 cells per well were plated in quadruplicates in RPMI with 1% heat-inactivated NCS (HiNCS) and Glutamax and allowed to adhere overnight. Media was then removed and either vehicle or 5 μM SB-505124 was added and incubated for 24 hours. Media was then removed and replaced with media containing increasing concentrations of carboplatin with either vehicle or 5 μM SB-505124. After 3 days of incubation Alamar Blue was added and plates were incubated for 2.5 hours before being read using Fluostar Optima Plate Reader.

Assay [2] deals with TAK1. The experiment in a line: Western blot of phospho-TAK1. The format is cell-based, human. The protocol:
Cell lysates were prepared using RIPA buffer with the addition of Halt Protease and Phosphatase Inhibitor Cocktails. Gel electrophoresis and transfer was performed using the BioRad MiniProtean System according to manufacturer's instructions. Phospho-TAK1 was detected using the combination of Rabbit anti-Phospho-TAK1 and anti-Rabbit IgG, HRP linked primary and secondary antibodies respectively.

For assay [3], the system named is NCI-H358. The experiment in a line: Sensitization of cells to platinum with TGFBR1 and ACVR1B inhibitor. The conditions noted are these: NCI-H358, 5 μM SB-505124 pre-treatment 24 hours, then carboplatin 3 days. It is filed as cell-based, human. The method, then: as §1
For assay [4] the following is noted: background statement; cited from earlier work.
The test system of assay [5] is A549 flank xenografts. The experiment in a line: In vivo modelling of platinum resistance, xenograft. Also noted: species or system athymic nude mice. The conditions noted are these: carboplatin 60 mg/kg day 0 or 2 μg FST day −1, +1, +3, +5, intraperitoneally. The method, then:
Follistatin (FST) is a molecule that is known for its role in regulating the activities of TGFβ superfamily members, including activin and GDF11, both of which were identified as important players in chemoresistance of non-small cell lung carcinoma (NSCLC) cells (see Example 2). Therefore, the effects of FST on inducing sensitization of NSCLC cells to platinum therapy were assessed in an in vivo xenograft model. Athymic nude mice bearing A549 flank xenografts were treated with combinations of vehicle control, 60 mg/kg carboplatin on day 0, and/or 2 μg FST on day -1, +1, +3 and +5. Five mice were randomized in to each of the treatment groups and treatments started when the tumour size was 200 mm^3. Tumour volumes were measured daily and the animals were culled when the tumour size reached over 500 mm^3. Athymic nude mice bearing A549 flank xenografts were treated with combinations of vehicle control, 60 mg/kg carboplatin on day 0, and/or 2 μg FST on day -1, +1, +3 and +5 administered intraperitoneally. Recombinant human Follistatin 288 (FST) was used in all experiments. FST was provided by […] Biosciences Ltd.

Assay [6] deals with A549 lung adenocarcinoma cell line. The experiment in a line: Innate platinum responsiveness, Alamar Blue viability over carboplatin concentrations. The format is cell-based, human. Conditions: chemonaive A549, 3 days. The protocol: The A549 lung adenocarcinoma cell line was originally derived from a smoker prior to treatment with chemotherapy. This chemonaive cell line carrying a common KRAS mutation was chosen as the primary cell line for modelling innate platinum responsiveness. Platinum responsiveness of A549 lung adenocarcinoma cell line was assessed against a wide range of carboplatin concentrations. […] 10,000 cells per well were plated in to a 96 well plate. […] Plates are left to incubate for 3 days with an Alamar Blue reading performed at end point. Curves of cell death in response to the respective alkylating agent were generated by graphing fluorescence (as a measure of cell viability) vs the alkylating agent concentration.

The subject of assay [7] is LX22CL cells. The assay is described as above. The format is cell-based, human. The conditions noted are these: chemonaive SCLC line LX22CL, 3 days.
Assay [8] has as its system A549 lung adenocarcinoma cells. The experiment in a line: DNA damage response, γH2AX confocal immunofluorescence. Conditions: 24 hr carboplatin, increasing concentrations. It is filed as cell-based, human. The protocol:
DNA damage induced by platinum was visualised by confocal immunofluorescence microscopy. A549 lung adenocarcinoma cells were treated with appropriate primary and secondary antibodies to visualise γH2AX and the DNA counterstain DAPI following 24 hr treatment with increasing concentrations of carboplatin.

“Also recorded” adds a separate entry of the source.

Take `Cc1cccc(-c2[nH]c(C(C)(C)C)nc2-c2ccc3c(c2)OCO3)n1` [SB-505124]: the “sensitization to platinum (carboplatin)” value in assay [1] (A549, 5 μM SB-505124 pre-treatment 24 hours, then carboplatin 3 days) is listed as “induced sensitization to platinum; also recorded: sensitized”; in assay [3] it was “showed sensitization to platinum; also recorded: sensitized”. Besides, the sensitization to busulfan entry in assay [1] (A549, SB-505124 pre-treatment then busulfan range) is “showed sensitization”. In assay [1] (A549, SB-505124 pre-treatment then cisplatin range), the sensitization to cisplatin entry is given as “showed sensitization”. In assay [2] (A549 and NCI-H358 cells, SB-505124 pre-treatment then carboplatin), the “activation of TAK1 (phosphorylated TAK1 level)” value is reported as “inhibited the activation of TAK1”.

With `N.N.[Cl][Pt][Cl]` [trans-DDP, trans-diamminedichloroplatinum (II)], in assay [4], the activity against tumours entry is “ineffective against tumours”.

On to `N.N.O=C([O-])C1(C(=O)[O-])CCC1.[Pt+2]` [carboplatin], for which the “tumour growth, agent alone” value in assay [5] is “did not affect tumour growth”. The “phosphorylated TAK1 (activated form) levels” value in assay [2] (cells treated with carboplatin) is given as “upregulated”. For the same compound, the “platinum responsiveness (survival against carboplatin concentration)” value in assay [6] was “exhibits an active resistance mechanism”; in assay [7] it was “shows sensitivity to carboplatin”. Besides, the “DNA damage (γH2AX)” value in assay [8] is “effect DNA damage, at much lower concentrations than is required to induce cell death”.

Source of the values: patent US20200023038A1, “METHOD OF TREATING NEOPLASIAS” (PARANTA BIOSCIENCES LIMITED, priority 2015, published 2020).
